In one series the test system is H9c2 cells. The series is described as follows: OGD-induced cell death in H9c2 cardiomyocytes, PI uptake. It counts as cell-based, rat. As to conditions: for resilience to OGD: 0.05-5.0 μM; for protection against OGD-induced death, pre-treatment: pre-treatment before OGD. The method, then: The rat cardiomyoblast cell line H9c2 was obtained from the American Type Culture Collection (CRL-1446) and cultured in Dulbecco's Modified Eagle Medium supplemented with 10% (v/v) heat-inactivated fetal bovine serum and 1% antibiotic-antimycotic. Cells were grown in an atmosphere of […]/5% CO2 in a humidified incubator.
H9c2 cells were made anoxic by replacing the medium with de-oxygenated Ischemic buffer (in mM: 1.13 CaCl2, 5 KCl, 0.3 KH2PO4, 0.5 MgCl2, 0.4 MgSO4, 128 NaCl, 10 HEPES) and by transferring them to an anaerobic chamber (5% CO2, 10% H2, 85% N2) for 6 hrs or 16 hrs at 37° C. OGD was terminated by washing the cells with oxygenated glucose-containing Control buffer (in mM: 1.13 CaCl2, 5 KCl, 0.3 KH2PO4, 0.5 MgCl2, 0.4 MgSO4, 128 NaCl, 10 HEPES 10 Glucose). Cultures were maintained for another 2 hrs at 37° C. in a humidified 5% CO2 atmosphere. Normoxic cells were maintained in Control buffer for the duration of the experiment.
Cell death was determined by fluorescence measurements of PI (5 μg/ml) using a multiwell plate fluorescence scanner. The fraction of dead cells in each culture was calculated as: fraction dead=(Ft−F0)/Fmax where Ft=PI fluorescence at 2 hrs post-OGD, F0=initial PI fluorescence immediately after the OGD treatment, and Fmax=PI fluorescence of the same cultures following 20 mins incubation in 1% TritonX-100.
H9c2 cells were cultured and subjected to OGD as described supra. FIG. 71 panels A and B show the results of exposure to M21 or M5 for 24 hours following 6 hours of OGD. FIG. 71 panels C and D show the results of H9c2cells were treated with either 1 mM Mg^2+, 5 μM M6, M11 (acute treatment) during the anoxic and recovery periods, or 1 μM nifedipine. Results are presented as mean±SEM (n=4).

For series [1], the system named is primary cultured mouse cortical cells. The series is described as follows: OGD-induced anoxic death in murine primary neuronal cell cultures, PI fluorescence. In kind it is cell-based. As to conditions: 1 to 3 hours OGD, with or without MCN, applied prior to or following OGD. The method, then: TRPM7 inhibitors were tested for their ability to reduce anoxic death in murine primary neuronal cell cultures subjected to 1 to 3 hours of OGD. This assay was generally performed as described by Aarts et al (2003). In brief, mixed cortical cultures enriched with neurons (85%) were prepared and used for experiments after 12-14 days in vitro. The cultures were transferred to an anaerobic chamber containing 5% CO2, 10% H and 85% N2. Cultures were washed 3× with 500 μl deoxygenated glucose free bicarbonate solution and maintained anoxic for the appropriate duration at 37° C. OGD was terminated by washing the cultures with oxygenated glucose-containing bicarbonate solution, and the cultures were further maintained 1-24 hours in a humidified 5% CO2 atmosphere. Cell death wash generally measured by fluorescence measurement of PI (50 ug/ml) in a multiwall plate reader (CytoFluor II, Perseptive Biosystems).

Another series addresses TRPM7 (Mus musculus, UniProt Q923J1). As to the kind of experiment: Whole-cell patch clamp recording of TRPM7 currents in HEK293 cells expressing TRPM7. The following applies: for TRPM7 currents, applied intracellularly: in intracellular recording fluid, final concentration 2 mM, 10-20 minutes; for TRPM7 currents, extracellular application: tested at 0.3, 1, 3, 10 and 30 μM. In general terms: The patch-clamp technique gives a direct electrical read-out from membranes.

For series [2], the system named is Weri retinoblastoma cells. As to the kind of experiment: Cancer cell proliferation, Weri. The following applies: >20% inhibition at 48-96 hours, MTT, SRB, luminescence or BrDU. It counts as cell-based. The protocol: To determine the breadth of efficacy in cancers, we examined the efficacy of a range of TRPM7 inhibitors for their ability to inhibit cell proliferation in cancer cell lines. Representative figures are included as examples.
Cells (Table 1) were grown to 70% confluency, trypsinized, counted, and seeded in 96-well flat-bottom plates at a final concentration of 2.5×10^3-5.0×10^3 cells/well in growth media containing 5% FBS (Day 0). Other well sizes and cell densities were used successfully as well. Cells were allowed to incubate in growth media for 24 hours to allow for maximum adhesion. Treatment with the test agent began on Day 1 and continued for 72 hours either with or without retreatment. At the 72 hour time point, viable cell numbers are quantified by the CellTiter-Glo® cell viability assay as described above, or using standard MTT, SRB or BrDU assays. Experiments were repeated at least twice with the same concentrations to determine growth inhibitory activity.
Data Collection—For the cell proliferation studies, data from each experiment was collected and expressed as % Cell Growth using the following calculation: % Cell Growth=(ftest/fvehicle)×100 Where ftest is the luminescent signal of the tested sample, and fvehicle is the luminescence of the vehicle in which the drug is dissolved (or appropriate measure for the other viability/proliferation measures). Dose response graphs and IC50 values were generated using standard software using the following variable slope equation: […]

In another series the test system is NIH3T3 fibroblasts. The series is described as follows: Toxicity on NIH3T3 fibroblast cells, PI uptake after 72 hours. In kind it is cell-based. As to conditions: concentrations that reduce proliferation of cancerous cells. The protocol:
To differentiate between an anti-proliferative effect of the TRPM7 inhibitors and cellular toxicity, the compounds were added to various ‘non-cancerous’ cell lines at the same concentrations and the percentage of PI uptake was measured after 72 hours.

The test system of another series is retinal explants. As to the kind of experiment: OGD in cultured ex vivo retinal explants. It counts as cell-based, rat. The following applies: 1 hr OGD. The protocol:
The ability of TRPM7 inhibitors to protect other types of cell cultures following exposure to anoxia, including non-neuronal cell cultures, has also been tested. In general, cultures of growing cells are exposed to a 1-6 hour period of anoxia, followed by addition of a TRPM7 at a range of concentrations upon removal from anoxic conditions. […] This implies that TRPM7 inhibitors may be useful both as a treatment for anoxic damage to patients presenting symptoms of a disorder associated with anoxic damage, or as a preventative measure. Such preventative measures can be chronic, such as treatment to protect against damage from heart attacks or strokes, or acute, to be given prior to or during surgical procedures, which may include but not be limited to procedures that involve endovascular invasion and have the possibility of dislodging material that may block blood flow through arteries. Other types of preventative measures can include the reduction of anoxic damage associated with cardiovascular issues (heart attack, myocardial infarction, acute ischemic attacks, atrial fibrillation, etc), brain disorders (stroke, neurotrauma, etc), diabetic disorders (blindness, deafness, neuropathy), retinal/eye disorders (glaucoma, macular degeneration, blindness), aural disorders (deafness, progressive deafness, hearing loss), muscle disorders (weakness, myodegenerative disease, disorders associated with mitochondrial depletion), and organ disorders (kidney, lung, liver disorders associated with ischemia or anoxic damage).
Acute and chronic retinal ischemia are major causes of blindness. Retinal damage from glaucoma, also termed “slow excitotoxicity” afflicts millions of people each year and is the second leading cause of blindness worldwide (after cataracts). Diabetic retinopathy is also very common, afflicting about 40% of diabetics and, while less commonly producing complete blindness, is a leading cause of visual impairment. The retina is an extension of the CNS, and was the first organ in which excitotoxicity was described. […]

SMILES strings stand for the structures. “Also recorded” adds a separate entry of the source.

TRPM7, sequence (Q923J1 whole entry): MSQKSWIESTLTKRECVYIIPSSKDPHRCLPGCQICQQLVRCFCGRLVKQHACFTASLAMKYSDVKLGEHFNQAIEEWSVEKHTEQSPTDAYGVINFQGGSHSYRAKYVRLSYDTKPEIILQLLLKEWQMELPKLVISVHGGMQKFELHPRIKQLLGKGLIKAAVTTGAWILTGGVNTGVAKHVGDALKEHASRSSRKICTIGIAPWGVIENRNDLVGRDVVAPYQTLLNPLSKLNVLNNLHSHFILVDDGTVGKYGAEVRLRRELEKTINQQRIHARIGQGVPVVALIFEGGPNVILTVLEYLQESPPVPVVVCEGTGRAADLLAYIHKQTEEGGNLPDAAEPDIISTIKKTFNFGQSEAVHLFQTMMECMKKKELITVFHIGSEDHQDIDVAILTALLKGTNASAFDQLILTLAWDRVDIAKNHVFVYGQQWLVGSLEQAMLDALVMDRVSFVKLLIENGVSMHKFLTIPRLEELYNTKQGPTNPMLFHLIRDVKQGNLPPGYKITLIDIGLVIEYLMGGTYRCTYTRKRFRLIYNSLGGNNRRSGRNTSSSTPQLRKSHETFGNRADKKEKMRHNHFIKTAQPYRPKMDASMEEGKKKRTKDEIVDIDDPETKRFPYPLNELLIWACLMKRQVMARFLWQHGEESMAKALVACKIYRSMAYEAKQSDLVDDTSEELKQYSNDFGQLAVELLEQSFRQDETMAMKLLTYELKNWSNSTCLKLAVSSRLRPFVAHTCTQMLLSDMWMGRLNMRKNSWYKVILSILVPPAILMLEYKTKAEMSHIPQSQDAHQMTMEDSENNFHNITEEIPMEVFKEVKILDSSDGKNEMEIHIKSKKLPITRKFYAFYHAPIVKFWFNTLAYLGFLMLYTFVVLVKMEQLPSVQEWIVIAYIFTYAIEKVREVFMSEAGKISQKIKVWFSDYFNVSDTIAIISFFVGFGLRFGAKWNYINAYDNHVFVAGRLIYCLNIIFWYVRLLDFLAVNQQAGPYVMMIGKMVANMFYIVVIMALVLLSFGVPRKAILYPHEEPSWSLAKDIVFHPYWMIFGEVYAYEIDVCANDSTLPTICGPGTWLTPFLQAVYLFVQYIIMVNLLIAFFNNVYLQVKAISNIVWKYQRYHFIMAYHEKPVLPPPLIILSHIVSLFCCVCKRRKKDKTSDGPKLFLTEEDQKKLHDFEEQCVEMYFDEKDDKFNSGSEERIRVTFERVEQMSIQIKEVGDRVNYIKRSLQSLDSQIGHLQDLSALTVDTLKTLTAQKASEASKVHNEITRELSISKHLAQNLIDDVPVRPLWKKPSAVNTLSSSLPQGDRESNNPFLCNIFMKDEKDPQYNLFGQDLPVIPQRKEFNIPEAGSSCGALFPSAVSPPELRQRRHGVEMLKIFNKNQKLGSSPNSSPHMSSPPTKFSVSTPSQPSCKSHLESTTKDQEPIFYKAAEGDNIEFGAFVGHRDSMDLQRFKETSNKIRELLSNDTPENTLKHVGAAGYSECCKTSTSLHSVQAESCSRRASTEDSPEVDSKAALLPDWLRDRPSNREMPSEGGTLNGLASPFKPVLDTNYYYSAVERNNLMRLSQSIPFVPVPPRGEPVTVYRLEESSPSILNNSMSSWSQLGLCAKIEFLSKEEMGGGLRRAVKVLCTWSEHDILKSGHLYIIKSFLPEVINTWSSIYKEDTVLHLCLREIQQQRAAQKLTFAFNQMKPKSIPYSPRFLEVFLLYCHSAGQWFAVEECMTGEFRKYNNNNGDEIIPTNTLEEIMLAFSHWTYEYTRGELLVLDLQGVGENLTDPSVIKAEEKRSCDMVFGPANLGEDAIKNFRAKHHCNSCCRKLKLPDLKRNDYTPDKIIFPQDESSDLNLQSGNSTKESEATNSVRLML
Experimental for TRPM7: Whole-cell patch clamp recordings were used essentially as described to test the TRPM7 inhibitors in HEK293 cells, H9c2 cardiomyocytes and cultured neurons. Each test compound was tested at 0.3, 1, 3, 10 and 30 μM, or as high as solubility permits.
To assess whether the M-compounds were inhibiting TRPM7 currents from an intracellular or extracellular location, M21 and M6 were dissolved in DMSO at 10 mM as stock, then diluted into intracellular recording fluid (ICF) to final concentration of 2 mM Immediately start recording of the TRPM7 like currents to RAMP change of membrane potentials after making the whole cell. Recording lasts for 10-20 minutes to compare the currents between control and test group.

For the compound `COc1cc2c(cc1OC)C(c1sc3ccccc3c1Cl)=NCC2` [Compound M6], in the series with H9c2 cells, the “resilience to OGD” value is “enhanced their resilience to OGD” and the “protection against OGD-induced death, pre-treatment” value is “comparable result to treatment after the onset of anoxia”. Also, in series [1], the “protection from anoxic death after OGD” value is “protection of cultures from anoxic death is observed”. Further, on TRPM7, the “TRPM7 currents, applied intracellularly” value was “do not affect TRPM7 currents” and the “TRPM7 currents, extracellular application” value is “reduces current through the TRPM7 channel”. Moreover, the “TRPM7 currents, extracellular application” value at TRPM7 (listed as 6) is reported as “inhibited ion currents through TRPM7”. Further, the “Demonstrated Reduction of Proliferation at or below 10 μM Inhibitor concentration” value in series [2] was “Weri retinoblastoma”. The “toxicity (PI uptake)” value in the series with NIH3T3 fibroblasts is “not toxic; also recorded: do not show toxicity”. Also, in the series on retinal explants, the “survival / resilience following exposure to OGD” value is “enhanced their resilience to OGD”.

`O=C(Nc1ccc(F)cc1)C(Sc1ccc(Cl)cc1)c1ccccc1` (stereo not drawn) [Compound M11]: the “resilience to OGD” value with H9c2 cells is recorded as “enhanced their resilience to OGD”. Besides, the “protection against OGD-induced death, pre-treatment” value with H9c2 cells was “less robust rescue of the OGD-induced death”. In addition, the “protection from anoxic death after OGD” value in series [1] was “protection has been demonstrated”. Moreover, the “TRPM7 currents, extracellular application” value on TRPM7 was “highest level of inhibition”; on TRPM7 (listed as 11), “inhibited ion currents through TRPM7”. For the same compound, the “Demonstrated Reduction of Proliferation at or below 10 μM Inhibitor concentration” value in series [2] was “Weri retinoblastoma”. Besides, in the series with NIH3T3 fibroblasts, the “toxicity (PI uptake)” value is “do not show toxicity”. Also, the “survival / resilience following exposure to OGD” value with retinal explants is given as “promote survival”.

Turning to `Cc1c(Cc2ccc(Cl)c(Cl)c2)c(=O)oc2cc(O)ccc12` [Compound M21], in the series on H9c2 cells, the “resilience to OGD” value is given as “enhanced their resilience to OGD”. The “protection from anoxic death after OGD” value in series [1] is reported as “protection of cultures from anoxic death is observed”. Moreover, the “TRPM7 currents, applied intracellularly” value at TRPM7 is reported as “do not affect TRPM7 currents”. In addition, the “TRPM7 currents, extracellular application” value at TRPM7 is “highest level of inhibition”; at TRPM7 (listed as 21), “inhibited ion currents through TRPM7”. In addition, in series [2], the “Demonstrated Reduction of Proliferation at or below 10 μM Inhibitor concentration” value was “Weri retinoblastoma”. The “survival / resilience following exposure to OGD” value in the series with retinal explants was “promote survival; also recorded: enhanced their resilience to OGD”.

The record behind these values is patent publication US8680137B2, “Agents and methods for treating ischemic and other diseases” (Nono Inc., priority 2009, dated 2014).
